Measured values as given in ChEMBL document CHEMBL1150761, “Additional biologically active constituents of the Chinese tallow tree (Sapium sebiferum)” (1988).
Values after ≈ are worked out from the molar mass of the structure shown.

Tested on: P388
Experiment: Cytotoxicity against mouse P388 cells
Format: functional
Conditions: read-out: ED50 (the source's name)

SMILES | EC50 [µg/mL]
O=C(O)c1cc(O)c(O)c(O)c1 [GALLIC ACID] | 0.7 (≈ 4.11 µM)
O=c1c(O)c(-c2ccc(O)cc2)oc2cc(O)cc(O)c12 [KAEMPFEROL] | 6.7 (≈ 23.4 µM)
O=c1c(O[C@@H]2O[C@H](CO)[C@@H](O)[C@H](O)[C@H]2O)c(-c2ccc(O)cc2)oc2cc(O)cc(O)c12 [ASTRAGALIN] | 8.2 (≈ 18.3 µM)
CC[C@H](CC[C@@H](C)[C@H]1CC[C@H]2[C@@H]3CC=C4C[C@@H](O[C@@H]5O[C@H](CO)[C@@H](O)[C@H](O)[C@H]5O)CC[C@]4(C)[C@H]3CC[C@]12C)C(C)C [SITOGLUSIDE] | 53 (≈ 91.9 µM)
O=c1c(O)c(-c2ccc(O)c(O)c2)oc2cc(O)cc(O)c12 [QUERCETIN] | 40 (≈ 132 µM)
CC1(C)CC(O)C[C@@]2(C)OC(=O)C=C12 (stereo partly specified) | 15 (≈ 76.4 µM)
